The text below walks through data of PMC6328172, “5-HT2 receptor binding, functional activity and selectivity in N-benzyltryptamines” (PLoS ONE, 2019).

In data set [1] the target is T1, human 5-HT2A receptor (Homo sapiens, UniProt P28223).
T1 construct: expressed in transfected cells; host or cells: CHO (CHO-5-HT2A cell line)
Put plainly: Ca2+ mobilization in CHO h5-HT2A cells. The following applies: for EC50: no unit in the table, nM, read-out: 5-HT2A EC50 (in parentheses) (converted); for Selectivity 5-HT2A/2C (functional): from EC50 values, Table 2. The class given is cell-based.

Data set [2] concerns the target T2, human 5-HT2C receptor (Homo sapiens, UniProt P28335).
T2 construct: expressed in transfected cells; host or cells: HeLa (HeLa-5-HT2C cell line)
T2 sequence (P28335 33-458): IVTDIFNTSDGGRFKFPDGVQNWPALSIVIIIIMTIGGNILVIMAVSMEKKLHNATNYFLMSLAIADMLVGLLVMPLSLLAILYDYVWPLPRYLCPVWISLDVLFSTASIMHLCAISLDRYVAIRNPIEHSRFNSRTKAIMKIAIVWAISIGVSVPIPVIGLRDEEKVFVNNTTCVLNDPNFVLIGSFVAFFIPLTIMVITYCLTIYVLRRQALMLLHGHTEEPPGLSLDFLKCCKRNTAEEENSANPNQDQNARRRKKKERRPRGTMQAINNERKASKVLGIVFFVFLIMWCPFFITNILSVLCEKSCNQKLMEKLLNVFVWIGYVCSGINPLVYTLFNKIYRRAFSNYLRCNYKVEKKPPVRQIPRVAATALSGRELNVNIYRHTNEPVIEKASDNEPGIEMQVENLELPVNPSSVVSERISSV
Nature of the data set: Competition binding to the human 5-HT2C receptor ([3H]mesulergine, HeLa-5-HT2C membranes). The following applies: for Selectivity 5-HT2C/2A (binding, in parentheses): from Ki values, Table 1; for Ki: human receptor, [3H]mesulergine displacement, no unit in the table, nM, read-out: 5-HT2C Ki (in parentheses) (converted).

The test system of data set [3] is 5-HT2A receptor. The following applies: described by Nichols; cited from earlier work.
The subject of data set [4] is head twitch response. The following applies: cited from earlier work.
In data set [5] the target is 5-HT2A receptor. As to conditions: described by Nichols; cited from earlier work. The source holds these as a separate data set.
Data set [6] addresses T2, human 5-HT2C receptor. Put plainly: Ca2+ mobilization in HeLa h5-HT2C cells. The class given is cell-based.
For data set [7], the target named is human 5-HT2B receptor (Homo sapiens, UniProt P41595). Nature of the data set: Competition binding to the human 5-HT2B receptor ([3H]LSD, CHO-5-HT2B membranes).
Data set [8] concerns the target T1, human 5-HT2A receptor. Nature of the data set: Competition binding to the human 5-HT2A receptor ([3H]ketanserin, CHO-5-HT2A membranes). As to conditions: for Selectivity 5-HT2A/2C (binding): from Ki values, Table 1; for Ki: human receptor, [3H]ketanserin displacement, no unit in the table, nM, read-out: 5-HT2A Ki (in parentheses) (converted).
The target of data set [9] is 5-HT2A receptor. Also on record: method as in PMID 27216487. The following applies: reported affinity; cited from earlier work.
In data set [10] the target is 5-HT2C receptor. Also on record: method as in PMID 27216487. The following applies: reported affinity; cited from earlier work.
Setting [11] is: relative efficacy, % of response to 5-HT.
[12] abbreviates: Ca2+ mobilization; no unit in the table, nM; read-out: 5-HT2C EC50 (in parentheses) (converted).

Where “and” joins values, the source holds several entries; their conditions need not be identical. Equal values may be shown once. Where a name gives a salt, the structure may show the parent alone. Read-outs that look alike come from different tables or passages of the source.

Chain of human 5-HT2B receptor (P41595 whole entry): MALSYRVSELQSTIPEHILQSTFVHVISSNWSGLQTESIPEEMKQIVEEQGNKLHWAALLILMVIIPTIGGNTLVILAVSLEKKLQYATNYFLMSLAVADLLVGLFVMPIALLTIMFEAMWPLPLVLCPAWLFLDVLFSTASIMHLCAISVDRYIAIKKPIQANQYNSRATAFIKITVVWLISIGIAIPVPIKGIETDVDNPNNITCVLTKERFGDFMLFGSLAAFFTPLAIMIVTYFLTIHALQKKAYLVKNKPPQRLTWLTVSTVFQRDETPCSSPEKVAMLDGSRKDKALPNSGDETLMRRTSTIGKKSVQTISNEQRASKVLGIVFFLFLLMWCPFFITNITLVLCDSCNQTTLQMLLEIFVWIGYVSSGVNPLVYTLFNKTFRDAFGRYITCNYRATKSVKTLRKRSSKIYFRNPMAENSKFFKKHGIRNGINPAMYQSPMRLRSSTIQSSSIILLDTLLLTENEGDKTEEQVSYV
T1 sequence (P28223 whole entry): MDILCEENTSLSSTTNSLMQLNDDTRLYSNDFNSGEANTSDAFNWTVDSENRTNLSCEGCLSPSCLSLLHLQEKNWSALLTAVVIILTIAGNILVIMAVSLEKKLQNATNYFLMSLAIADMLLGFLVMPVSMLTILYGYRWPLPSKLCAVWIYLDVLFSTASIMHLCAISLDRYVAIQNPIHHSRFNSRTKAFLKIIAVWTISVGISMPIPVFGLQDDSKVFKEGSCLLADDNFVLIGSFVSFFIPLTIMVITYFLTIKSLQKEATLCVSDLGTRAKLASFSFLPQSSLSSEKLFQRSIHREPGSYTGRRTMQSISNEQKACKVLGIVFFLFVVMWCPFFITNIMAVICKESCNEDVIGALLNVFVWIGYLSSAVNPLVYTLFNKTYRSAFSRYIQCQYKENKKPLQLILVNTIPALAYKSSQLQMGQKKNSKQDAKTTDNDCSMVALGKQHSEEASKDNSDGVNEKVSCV

As for `Oc1cccc(CNCCc2c[nH]c3ccccc23)c1` (as salt: fumarate) [Compound 7, N-(3-Hydroxybenzyl)-[2-(1H-indol-3-yl)ethyl]amine], the melting point is 206 to 207 °C.

`Cc1ccc(O)c(CNCCc2c[nH]c3ccccc23)c1` (as salt: fumarate) [Compound 23, N-(2-Hydroxy-5-methylbenzyl)-[2-(1H-indol-3-yl)ethyl]amine] had a melting point of 183 to 185 °C.

`COc1ccc(O)c(CNCCc2c[nH]c3ccc(OC)cc23)c1` (as salt: fumarate) [Compound 42, N-(2-Hydroxy-5-methoxybenzyl)-[2-(5-methoxy-1H-indol-3-yl)ethyl]amine] came in with a melting point of 196 to 197 °C.

Molecule `COc1ccc2[nH]cc(CCNCc3cc(F)ccc3O)c2c1` (as salt: fumarate) [Compound 43, N-(5-Fluoro-2-hydroxybenzyl)-[2-(5-methoxy-1H-indol-3-yl)ethyl]amine] yielded a melting point of 200 to 201 °C.

Regarding `Oc1ccccc1CNCCc1c[nH]c2ccccc12` (as salt: hydrochloride) [Compound 2, N-(2-Hydroxybenzyl)-[2-(1H-indol-3-yl)ethyl]amine], the melting point lay within 222 to 223 °C.

The molecule `CCOc1ccc(CNCCc2c[nH]c3ccccc23)cc1` (as salt: hydrochloride) [Compound 15, N-(4-Ethoxybenzyl)-[2-(1H-indol-3-yl)ethyl]amine] gave a melting point of 206 to 208 °C.

Molecule `COc1cccc(CNCCc2c[nH]c3ccccc23)c1OC` (as salt: hydrochloride) [Compound 20, N-(2,3-Dimethoxybenzyl)-[2-(1H-indol-3-yl)ethyl]amine] had a melting point of 210 to 212 °C.

In turn, `Oc1ccc(F)cc1CNCCc1c[nH]c2ccccc12` (as salt: hydrochloride) [Compound 24, N-(5-Fluoro-2-hydroxybenzyl)-[2-(1H-indol-3-yl)ethyl]amine] showed a melting point of 185 to 186 °C.

On to `COc1ccc(F)cc1CNCCc1c[nH]c2ccccc12` (as salt: hydrochloride) [Compound 25, N-(5-Fluoro-2-methoxybenzyl)-[2-(1H-indol-3-yl)ethyl]amine], for which the melting point was 179 to 180 °C.

Take `Oc1ccc(Br)cc1CNCCc1c[nH]c2ccccc12` (as salt: hydrochloride) [Compound 26, N-(5-Bromo-2-hydroxybenzyl)-[2-(1H-indol-3-yl)ethyl]amine]: the melting point was in the range of 188 to 189 °C.

Consider `COc1ccc(Br)cc1CNCCc1c[nH]c2ccccc12` (as salt: hydrochloride) [Compound 27, N-(5-Bromo-2-methoxybenzyl)-[2-(1H-indol-3-yl)ethyl]amine], for which the melting point fell in the range of 192 to 193 °C.

For the molecule `COc1ccc(Cl)cc1CNCCc1c[nH]c2ccccc12` (as salt: hydrochloride) [Compound 28, N-(5-Chloro-2-methoxybenzyl)-[2-(1H-indol-3-yl)ethyl]amine], the melting point is 184 to 185 °C.

Turning to `COc1ccc(OC)c(CNCCc2c[nH]c3ccccc23)c1` (as salt: hydrochloride) [Compound 29, N-(2,5-Dimethoxybenzyl)-[2-(1H-indol-3-yl)ethyl]amine], the melting point lay in the range of 175 to 176 °C.

`O=[N+]([O-])c1ccc(O)c(CNCCc2c[nH]c3ccccc23)c1` (as salt: hydrochloride) [Compound 30, N-(5-Nitro-2-hydroxybenzyl)-[2-(1H-indol-3-yl)ethyl]amine] returned a melting point of 194 to 196 °C.

Turning to `Oc1cc(Br)ccc1CNCCc1c[nH]c2ccccc12` (as salt: hydrochloride) [Compound 31, N-(4-Bromo-2-hydroxybenzyl)-[2-(1H-indol-3-yl)ethyl]amine], the melting point lay within 192 to 194 °C.

The molecule `COc1ccc(CNCCc2c[nH]c3ccccc23)c(OC)c1` (as salt: hydrochloride) [Compound 32, N-(2,4-Dimethoxybenzyl)-[2-(1H-indol-3-yl)ethyl]amine] gave a melting point of 184 to 186 °C.

`Oc1cccc(Br)c1CNCCc1c[nH]c2ccccc12` (as salt: hydrochloride) [Compound 33, N-(6-Bromo-2-hydroxybenzyl)-[2-(1H-indol-3-yl)ethyl]amine]: the melting point lay within 195 to 196 °C.

In the case of `Oc1c(Br)cc(Br)cc1CNCCc1c[nH]c2ccccc12` (as salt: hydrochloride) [Compound 35, N-(3,5-Dibromo-2-hydroxybenzyl)-[2-(1H-indol-3-yl)ethyl]amine], the melting point fell in the range of 183 to 184 °C.

The molecule `COc1cccc(CNCCc2c[nH]c3ccccc23)c1O` (as salt: succinate) [Compound 19, N-(2-Hydroxy-3-methoxybenzyl)-[2-(1H-indol-3-yl)ethyl]amine] yielded a melting point of 109 to 111 °C.

`Oc1c(Br)cccc1CNCCc1c[nH]c2ccccc12` (as salt: succinate) [Compound 21, N-(3-Bromo-2-hydroxybenzyl)-[2-(1H-indol-3-yl)ethyl]amine]: the melting point lay in the range of 141 to 142 °C.

`Oc1c(F)cccc1CNCCc1c[nH]c2ccccc12` (as salt: succinate) [Compound 22, N-(3-Fluoro-2-hydroxybenzyl)-[2-(1H-indol-3-yl)ethyl]amine] gave a melting point of 151 to 152 °C.

Molecule `Oc1cccc(F)c1CNCCc1c[nH]c2ccccc12` (as salt: succinate) [Compound 34, N-(6-Fluoro-2-hydroxybenzyl)-[2-(1H-indol-3-yl)ethyl]amine] had a melting point of 159 to 161 °C.

Turning to `COc1ccc2[nH]cc(CCNCc3ccccc3OC)c2c1` [Compound 38, N-(2-Methoxybenzyl)-[2-(5-methoxy-1H-indol-3-il)ethyl]amine], the “5-HT2A pEC50” value in [1] (Ca2+ mobilization, pEC50 ± SEM) stood at 8.70 ± 0.20. The EC50 is 2 nM and 1.99 nM in data set [1] (Ca2+ mobilization); 0.0019 µM in data set [3]; 3.8 nM in [6] (setting [12]). Further, in data set [1], the “Selectivity 5-HT2A/2C (functional)” value turned out to be 1.91. Further, the “5-HT2A % Emax” value in data set [1] (setting [11]) is reported as 83.66 ± 3.42%. Moreover, the Emax stood at 84% in [1] (setting [11]) and 88.7 ± 4.22% in data set [6] (HeLa; read-out: 5-HT2C % Emax). Further, in [2], the “Selectivity 5-HT2C/2A (binding, in parentheses)” value stood at 0.65. Also, the Ki in data set [2] was 69.2 nM; in [5] it was 0.0166 µM; in data set [7], 0.0159 µM; in data set [8], 44.7 nM. For the same molecule, the “5-HT2A Emax” value in [3] is recorded as 81%. Also, the “ED50 in the mouse head twitch response (HTR) assay” value in [4] was 3.15 mg/kg. Further, the “Selectivity 5-HT2C/2A (functional, in parentheses)” value in [6] (from EC50 values, Table 2) was found to be 0.53. Further, the “Selectivity 5-HT2A/2C (binding)” value in data set [8] worked out at 1.55.

For `COc1ccc(O)c(CNCCc2c[nH]c3ccc(OC)cc23)c1` [Compound 42, N-(2-Hydroxy-5-methoxybenzyl)-[2-(5-methoxy-1H-indol-3-yl)ethyl]amine], in data set [1], the “Selectivity 5-HT2A/2C (functional)” value is on record as 0.91. Besides, the maximal effect (Emax) is 43.6 ± 0.9% in data set [1] (setting [11]) and 89.4 ± 3.86% in data set [6] (HeLa, read-out: 5-HT2C % Emax). The “Selectivity 5-HT2C/2A (binding, in parentheses)” value in [2] is reported as 3.31. Further, the results for the Ki in [2], in [7] and in [8] were 40.7 nM, 0.0204 µM and 135 nM, respectively. Moreover, the “Selectivity 5-HT2C/2A (functional, in parentheses)” value in [6] (from EC50 values, Table 2) turned out to be 1.1. For the same molecule, the “Selectivity 5-HT2A/2C (binding)” value in [8] was 0.30.

`COc1ccc2[nH]cc(CCNCc3cc(F)ccc3O)c2c1` [Compound 43, N-(5-Fluoro-2-hydroxybenzyl)-[2-(5-methoxy-1H-indol-3-yl)ethyl]amine]: the EC50 in [1] (Ca2+ mobilization) is 1.4 nM and 1.38 nM; in data set [6] (setting [12]), 3.63 nM. The “Selectivity 5-HT2A/2C (functional)” value in data set [1] was found to be 2.63. For the same molecule, the Emax in [1] (setting [11]) was determined as 83.3 ± 2.26%; in data set [6] (HeLa; read-out: 5-HT2C % Emax), 106 ± 3.05%. Moreover, the “Selectivity 5-HT2C/2A (binding, in parentheses)” value in data set [2] came to 0.10. Further, the Ki in data set [2] was 39.8 nM; in data set [7] it was 0.00891 µM; in [8], 3.98 nM. In data set [6] (from EC50 values, Table 2), the “Selectivity 5-HT2C/2A (functional, in parentheses)” value came to 0.38. Further, the “Selectivity 5-HT2A/2C (binding)” value in data set [8] was determined as 9.66.

For `CC(C)N(CCc1c[nH]c2ccccc12)C(C)C` [N,N-diisopropyltryptamine], the figures for the Ki in [9] and in data set [10] were 1.2 µM and 6.5 µM, respectively.

As to `CN(C)CCc1c[nH]c2ccccc12` [N,N-dimethyltryptamine], the Ki in data set [9] is 0.237 µM; in data set [10], 0.424 µM.

`COc1ccc2[nH]cc(CCN(C)C(C)C)c2c1` [N-isopropyl-N-methyl-5-methoxytryptamine]: the Ki was 0.165 µM in data set [9] and 1.3 µM in data set [10].
